Columns and labels:
human V2 receptor [1] = target: T1, human V2 receptor (Homo sapiens, UniProt P30518); assay: Study to confirm the agonism of human V2 receptor (intracellular Ca2+, HEK293 cells coexpressing human V2 receptor and Gqs chimeric protein); type: cell-based; design: expressed in transfected cells; host or cells: HEK293 cells (American Type Culture Collection), transient transfection with pCI-neo/hV2 and pLEC-Gqs5; conditions: for EC50: intracellular Ca2+ response, HEK293 cells coexpressing human V2 receptor and Gqs; for I A (intrinsic activity): maximum response relative to AVP = 1.00
T1 sequence (P30518 whole entry): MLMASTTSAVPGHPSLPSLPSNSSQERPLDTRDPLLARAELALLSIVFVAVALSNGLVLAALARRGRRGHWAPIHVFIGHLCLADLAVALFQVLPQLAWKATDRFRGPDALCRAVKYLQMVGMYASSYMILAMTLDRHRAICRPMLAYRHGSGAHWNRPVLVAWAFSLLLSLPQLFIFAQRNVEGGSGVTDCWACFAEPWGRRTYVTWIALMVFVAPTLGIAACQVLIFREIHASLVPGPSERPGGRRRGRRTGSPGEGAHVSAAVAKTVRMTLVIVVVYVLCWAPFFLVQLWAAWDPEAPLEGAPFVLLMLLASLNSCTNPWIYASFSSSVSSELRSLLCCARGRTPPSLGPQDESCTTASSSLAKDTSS
Method: The Study to Confirm the Agonism of Human V2 Receptor
The experiment to confirm the response of the test compounds to human V2 receptor was carried out using the cells prepared as described below in order to use this confirmation study to see the agonism of human V2 receptor of the test compounds.
The test compounds were dissolved in dimethylsulfoxide at 10 mM and solutions of the test compounds were prepared by 10-fold serial dilution with the Assay buffer (0.1% BSA, 20 mM HEPES/Hank's balanced salt solution, pH 7.4) at the concentration of 0.1 nM to 10 μM, which were used in this study.
Human V2 receptor couples with Gs protein, one of the G-coupling protein, and consequently produces cyclic adenosine 3′, 5′-monophosphate (cAMP) via adenylate cyclase. This cAMP produce can be substituted to intracellular increase of Ca^2+ with coexpressing Gqs, a chimeric protein, and human V2 receptor (Mol. Pharmacol., Vol. 50, pp. 885-890, 1996). The responses of the test compounds for human V2 receptor were quantified by measuring this intracellular Ca^2+. The changes of intracellular Ca^2+ after adding the test compounds at each concentration as mentioned above (0.1 nM to 10 μM) were measured with a FlexStation (Molecular Devices) using a FLIPR CALCIUM ASSAY KIT (Molecular Devices).
The intrinsic activities (IA) of the test compounds were calculated from the maximum response of the test compounds as that of AVP was considered to be 1.00. In case of a full agonist, the EC50 values of the test compounds were calculated as the maximum response of AVP was considered to be 100% and in the case of a partial agonist, EC50 values of test compounds were calculated as the maximum response of own test compounds were considered to be 100%. The concentration that achieved to 50% response of the maximum response in a concentration-response curve was considered as EC50 value. The values of EC50 obtained in this study were shown in Table 84 described below as indications of the agonism of human V2 receptor.
The Preparation of the Cells Using Confirmation Study of an Agonism of Human V2 Receptor (HEK293 Cells Coexpressed Human V2 Teceptor and Gqs Chimeric Protein)
HEK293 cells (American Type Culture Collection) were incubated in the Eagle's Minimum Essential Medium (EMEM, Invitrogen) containing 1 mM sodium pyruvate, nonessential amino acids (0.1 mM), streptomycin (100 μg/mL), penicillin (100 U/mL), 10% fetal calf serum (Sanko chemicals) in an incubator with 5% CO2 at 37° C. The transfection was carried out by adding pCI-neo hV2 expression vector, expression vector inserted with the sequence coding Gqs chimeric protein (pLEC-Gqs5, LiveWare, Molecular Devices) and Lipofectamine2000 (Invitrogen), all diluted with OPTI-MEM I Reduced Serum Medium I (Invitrogen), to the cell suspension which was prepared from the confluent cells suspended with EMEM as mentioned above without antibiotics at 1×10^6 cells/mL. After the transfection, the cells (HEK293 cells coexpressed human V2 receptor and Gqs chimeric protein) were incubated in an incubator with 5% CO2 for two days and were used as cells for confirming agonism of human V2 receptor, and used for assessment of the test compounds. The expression plasmid vector of human V2 receptor represented as pCI-neo/hV2 above was constructed by the method as described below.

human V2 receptor [2] = target: T1, human V2 receptor; assay: Binding experiment for human V2 receptor ([3H]-AVP displacement, CHO cell membranes); design: purchased Packard BioScience; host or cells: CHO cell membranes; conditions: inhibition of [3H]-AVP binding, CHO cell membranes expressing human V2 receptor; Ki calculated from IC50 and Kd; read-out: Affinity to human V2 receptor Ki
Method: Binding Experiment for Human V2 Receptor
Test compounds were dissolved in dimethylsulfoxide at 10 mM. The affinities for human V2 receptor were determined by an inhibition against [^3H]-Arginie vasopressin (AVP) (Perkin elmer Japan) binding to the human V2 receptor using CHO cell membranes expressed human V2 receptor (Packard BioScience). Cell membranes suspension was prepared by suspending the cell membranes as mentioned above with Assay buffer (50 mM Tris-HCl, 10 mM MgCl2, 0.1% bovine serum albumin (BSA), pH7.4) at an adequate protein concentration. The test compound solutions were prepared by diluting the dimethylsulfoxide solution of the test compound as mentioned above with Assay buffer at final concentration of 10 nM, 100 nM, 1 μM and 10 μM (in this diluting procedure, concentration of dimethylsulfoxide was adjusted to be 0.5% at each concentration of the test compound). Cell membranes suspension (50 μL), 3 nM of [^3H]-AVP (50 μL), Assay buffer (50 μL) and the solution of the test compounds at each concentrations (50 μL) were added to MultiScreen 96-well plate (Millipore) and the mixture was incubated for an hour at 25° C. with shaking slightly. After filtration by aspiration, the plate was washed with ice-cold washing buffer (50 mM Tris-HCl, 10 mM MgCl2, pH 7.4) for three times. After dry the plate, Microscinti-20 (Packard) was added to each well and the plate was shaken slightly, and then radioactivities of each well were counted with a micro plate scintillation counter, TopCount (Packard). Non-specific binding of [^3H]-AVP for cell membranes was determined by adding 1 μM of cold AVP substituted for the test compounds. The concentration of the test compounds inhibiting the specific binding of [^3H]-AVP by 50% was considered as IC50 value.
The Calculation of Kd Value of [^3H]-AVP for the Cell Membranes Expressed Human V2 Receptor
The suspension of the cell membranes expressed human V2 receptor was prepared with diluting adequately with the Assay buffer as mentioned above. In consideration for the radioactivity of [^3H]-AVP, six different concentrations (final concentration; ranging from approximately 100 pM to 6000 pM) of [^3H]-AVP were prepared by serial dilution by from 2 to 3 fold with the Assay buffer. The cell membranes suspension (50 μL), each concentrations of [^3H]-AVP (50 μL), the Assay buffer (50 μL) and 1 μM of cold AVP or the Assay buffer (50 μL) were added to MultiScreen 96-well plate (Millipore) and the mixture was incubated for an hour at 25° C. with shaking slightly. The specific bindings (B value) of each concentrations of the [^3H]-AVP were determined by the method as mentioned above and free-bound contents (F value) at each concentrations of the [^3H]-AVP were determined. The Kd value was calculated by Scatchard analysis using the B value and the F value.

Male SD rats = assay: Acute toxicity test; type: in vivo; conditions: 10 mg/kg intravenously, N=2, one hour experimental period, urethane anesthesia
Method: Male SD rats (250-300 g weight) were divided into some groups (N=2) and each cannula was inserted into trachea and jugular vein under anesthesia with urethane (1.5 g/kg, subcutaneously). The test compound solutions were prepared with an adequate solvent to be a dosage of 10 mg/kg, and then the solution was administered intravenously via cannula. The survival rate was determined for an hour experimental period.

[3] = tested on: anesthetized rats infused with hypotonic solution; assay: Antidiuretic effect on diuresis induced by hypotonic solution in anesthetized rats; type: in vivo, rat; conditions: 10 μg/kg intravenously; for Antidiuretic effect (decreasing rate of urine volume): anesthetized male SD rats, against pre value; for Duration tine: period until decreasing rate of urine volume restored to −20%
Method: The Study of Antidiuretic Effect
The Confirmation Study of Antidiuretic Effect on the Diuretic Activity Induced by Loading Hypotonic Solution in the Anesthetized Rats Infused with Hypotonic Solution
It has been reported that plasma AVP level was decreased with intravenous infusion of hypotonic solution (J. Endocrinol., Vol. 141, pp. 59-67, 1994). The antidiuretic effect of the test compounds in the rats induced a diuretic condition was determined by the method as reported by Angchanpen et al (Br. J. Pharmacol., Vol. 93, pp. 151-155, 1988). The test compounds were dissolved in dimethylsulfoxide at 10 mM, and used in the study. Male SD rats (200-400 g weight) were anesthetized with 100 mg/kg of Inactin (SIGMA) intraperitonealy and each cannula was inserted into trachea, jugular vein, bladder and femoral vein, respectively. The hypotonic solution (0.3% NaCl, 0.83% glucose) was infused via femoral vein at 9 mL/hour. The urine volume obtained via cannula inserted into bladder was measured every 10 minutes. After steady-state of urine volume for three 10 minutes periods, test compounds prepared as mentioned above were administered intravenously at 10 μg/kg via cannula inserted into jugular vein. Dimethylsulfoxide/saline (0.3%) was used as a vehicle. The average of urine volume measured for three 10 minutes periods before the administration was defined as the pre value (0%). After the administration of the test compounds, the urine volume was measured every 10 minutes. The antidiuretic effect, namely the decrease of the urine volume, induced by administration of test compounds was calculated from the decreasing rate of urine volume (minus %) against the pre value. Because maximum decreasing rate of the urine volume after administration of vehicle was −20% in this study, the period that decreasing rate of urine volume restored to −20% after administration of the test compounds was considered as indication of duration time of the test compounds.

| Structure (SMILES) | EC50 (human V2 receptor [1]) [nM] | I A (intrinsic activity) (human V2 receptor [1]) | Ki (human V2 receptor [2]) [nM] | Dead (Male SD rats) | Antidiuretic effect (decreasing rate of urine volume) [3] [%] | Duration tine [3] [min] |
| --- | --- | --- | --- | --- | --- | --- |
| C[C@@H]1CN(C(=O)c2ccc(OCCO)cc2Cl)c2ccccc2CN1C(=O)NCC(=O)O [Example 3-6] | 15.4 | 0.93 |  |  |  |  |
| CNC(=O)CNC(=O)N1Cc2ccccc2N(C(=O)c2ccc(-n3cccn3)cc2Cl)C[C@H]1C [Example 5-3] | 9.1 | 0.48 | 14 |  |  |  |
| C[C@@H]1CN(C(=O)c2ccc(-n3cccn3)cc2Cl)c2ccccc2CN1C(=O)NCC(N)=O [Example 5-2] | 7.3 | 0.71 | 35.5 | 0/2 | −83.9 | 50 |
| C[C@@H]1CN(C(=O)c2ccc(-n3cccn3)cc2Cl)c2ccccc2CN1C(=O)NCC(=O)N(C)C [Example 5-4] | 27.6 | 0.49 |  | 0/2 | −90.4 | 80 |
| C[C@@H]1CN(C(=O)c2ccc(-n3cccn3)cc2Cl)c2ccccc2CN1C(=O)NCC(=O)N1CCCC1 [Example 5-5] | 24.9 | 0.83 |  | 0/2 | −89.4 | 90 |
| C[C@@H]1CN(C(=O)c2ccc(-n3cccn3)cc2Cl)c2ccccc2CN1C(=O)NCC(=O)O [Example 3-1, {[(R)-1-(2-Chloro-4-pyrazol-1-ylbenzoyl)-3-methyl-1,2,3,5-tetrahydrobenzo[e]-1,4-diazepin-4-carbonyl]amino}acetic acid] | 9.4 | 0.59 | 19.7 |  | −88.7 | 60 |
| C[C@@H]1CN(C(=O)c2ccc(-n3cccn3)cc2Cl)c2ccccc2CN1C(=O)NCCO [Example 4, N-(2-Hydroxyethyl)-(R)-1-(2-chloro-4-pyrazol-1-ylbenzoyl)-3-methyl-1,2,3,5-tetrahydrobenzo[e]-1,4-diazepin-4-carboxamide] | 16 | 0.75 | 61.9 |  |  |  |

Continued, in another order:

| EC50 (human V2 receptor [1]) [nM] | I A (intrinsic activity) (human V2 receptor [1]) | Ki (human V2 receptor [2]) [nM] | Structure (SMILES) | Dead (Male SD rats) | Antidiuretic effect (decreasing rate of urine volume) [3] [%] | Duration tine [3] [min] |
| --- | --- | --- | --- | --- | --- | --- |
| 8.6 | 0.75 |  | C[C@@H]1CN(C(=O)c2ccc(-n3cccn3)cc2C(F)(F)F)c2ccccc2CN1C(=O)NCC(N)=O [Example 5-11] |  |  |  |
| 2.2 | 0.89 | 27.8 | C[C@@H]1CN(C(=O)c2ccc(N3CCCC3)cc2Cl)c2ccccc2CN1C(=O)NCC(N)=O [Example 5-18] |  |  |  |
| 9.1 | 0.71 |  | C[C@@H]1CN(C(=O)c2ccc(-n3cccn3)cc2F)c2ccccc2CN1C(=O)NCC(N)=O [Example 5-15] |  |  |  |
| 6.5 | 0.79 |  | Cc1cc(-n2cccn2)ccc1C(=O)N1C[C@@H](C)N(C(=O)NCC(N)=O)Cc2ccccc21 [Example 5-12] |  |  |  |
| 15.6 | 0.57 |  | C[C@@H]1CN(C(=O)c2ccc(-n3cccn3)cc2Cl)c2ccc(F)cc2CN1C(=O)NCC(N)=O [Example 5-19] |  |  |  |
| 17.3 | 0.92 |  | C[C@@H]1CN(C(=O)c2ccc(-n3cccn3)cc2Cl)c2ccccc2CN1C(=O)NCC(=O)N1CCCCC1 [Example 5-6] |  |  |  |

From US20080161294A1, “Urea derivative, medicinal composition containing the same, and medicinal use of these” (priority 2005, published 2008)
